Data published in PMC5835316 (Chemosphere, 2017).
Like-named read-outs stand apart in the source and are kept apart here.

Tests used:
[1] = tested on: zebrafish (Danio rerio) embryo; test: zebrafish embryo teratogenicity assay; conditions: for percent deformity: 15, 30 and 60 µM (≥ 15 µM); for EC50: read-out: EC50 (for teratogenicity) and LC50, equivalently calculated; for EC50/LC50: retinoids, deformity equivalent to mortality, probit analysis
[2] = format: physicochemical; conditions: mild heating; standing at room temperature and ambient light
[3] = tested on: zebrafish (Danio rerio) embryo; conditions: ref Hermann, 1995; Selderslaghs et al., 2009; Wang et al., 2014; cited from earlier work
RAR = conditions: ref Repa et al., 1993; cited from earlier work

4-Hydroxymyxol 2′-glycoside [Compound 3]
teratogenicity (qualitative, bioassay-guided fractionation) ([1]; in vivo): single bioactive component

4-Ketomyxol 2′-glycoside [Compound 2]
stability [2]: highly unstable
observed deformities (Fig. 5) ([1]; 3 and 5 dpf): head and eye hypoplasia and truncated tail
additional concentration with significant percent deformity ([1]; by 3 dpf): 5 µM
concentration showing pronounced developmental dysfunction ([1]; by 3 dpf): ≥ 5 µM
percent deformity ([1]; by 3 dpf): 100%
EC50 ([1]; at 5 dpf, ± standard error): 1.8 ± 0.2 µM

CC1=C(/C=C/C(C)=C/C=C/C(C)=C/C=C/C=C(C)/C=C/C=C(C)/C=C/C=C(C)/C=C/[C@H](O[C@@H]2O[C@@H](C)[C@@H](O)[C@@H](O)[C@@H]2O)C(C)(C)O)C(C)(C)C[C@H](O)C1 [Compound 1, Myxol 2′-glycoside]
stability [2]: highly unstable
observed deformities (Fig. 5) ([1]; 5 µM, 3 and 5 dpf): head and eye hypoplasia, truncated tail and pericardial edema
concentration showing pronounced developmental dysfunction ([1]; by 3 dpf): ≥ 5 µM
percent deformity ([1]; by 3 dpf): 100%
EC50 ([1]; at 5 dpf, ± standard error): 2.4 ± 0.9 µM

CC1=C(/C=C/C(C)=C/C=C/C(C)=C/C(=O)O)C(C)(C)CCC1 [RA, all-trans retinoic acid]
LC50 and EC50 (for teratogenicity) previously reported in the zebrafish embryo [3]: nanomolar to sub-nanomolar range
teratogenicity at lowest concentration tested ([1]; 1 µM): effectively lethal
observed deformities (Fig. 5) ([1]; 1 µM, 3 dpf and 5 dpf): severely arrested development of the body axis including head and eye hypoplasia and truncated tail

CC1=C(/C=C/C(C)=C/C=C/C(C)=C/C=C/C=C(C)/C=C/C=C(C)/C=C/C2=C(C)C(=O)CCC2(C)C)C(C)(C)CCC1=O [canthaxanthin]
observed deformities (Fig. 5) ([1]; 30 µM, 3 dpf): head and eye hypoplasia and truncated tail
percent deformity (development toxicity) ([1]; 2 dpf, 60 µM): approximately 89%
percent deformity ([1]; by 3 dpf): 100%
EC50 ([1]; at 5 dpf, ± standard error): 8.7 ± 1.8 µM

CC1=C[C@H](O)CC(C)(C)[C@H]1/C=C/C(C)=C/C=C/C(C)=C/C=C/C=C(C)/C=C/C=C(C)/C=C/C1=C(C)C[C@@H](O)CC1(C)C [lutein]
observed deformities (Fig. 5) ([1]; 30 µM): head and eye hypoplasia and truncated tail
EC50 ([1]; Danio rerio): 4.7 ± 3 µM
percent deformity ([1]; by 3 dpf): 100%

CC1=C(/C=C/C(C)=C/C=C/C(C)=C/C=O)C(C)(C)CCC1 [retinal, all-trans retinaldehyde]
binding affinity to RAR (RAR): essentially no binding affinity
EC50/LC50 [1]: 1.8 ± 0.7 µM

CC1=C(/C=C/C(C)=C/C=C/C(C)=C/CO)C(C)(C)CCC1 [retinol]
EC50/LC50 [1]: 9.2 ± 7.6 µM

CC1=C(/C=C/C(C)=C/C=C/C(C)=C/C=C/C=C(C)/C=C/C=C(C)/C=C/C2=C(C)C[C@@H](O)CC2(C)C)C(C)(C)C[C@H](O)C1 [zeaxanthin]
observed deformities (Fig. 5) ([1]; 60 µM, 3 dpf): little effect
embryo development ([1]; 3–5 dpf, 60 µM): developed normally
teratogenicity ([1]; 5-day exposure studies, 1-60 µM): no teratogenicity was observed

CC1=C(/C=C/C(C)=C/C=C/C(C)=C/C=C/C=C(C)/C=C/C=C(\C)C=O)C(C)(C)CCC1 [β-apo-8’carotenal, trans-β-apo-8’carotenal]
teratogenicity ([1]; at 3 dpf): no teratogenicity was observed
developmental toxicity (percent deformity) ([1]; at 5 dpf, not significantly different from controls): ~ 22%

CC1=C(/C=C/C(C)=C/C=C/C(C)=C/C=C/C=C(C)/C=C/C=C(C)/C=C/C2=C(C)CCCC2(C)C)C(C)(C)CCC1 [β-carotene]
observed deformities (Fig. 5) ([1]; 30 µM, 5 dpf): truncated tail and pericardial edema
EC50 ([1]; Danio rerio): 23.5 ± 8.9 µM
